# Experimental data as given in patent US20260347364A1, “PYRAZOLO[4,3-F]QUINAZOLINE DERIVATIVES AS MODULATORS OF G12D MUTANT KRAS USEFUL FOR THE TREATMENT OF CANCER” (JAZZ PHARMACEUTICALS IRELAND LTD., priority 2023, published 2026).
# How the values were obtained:
# KRAS G12D = biological target: T1, KRAS G12D (Homo sapiens, UniProt P01116, G12D); experiment: HTRF nucleotide exchange assay, KRAS G12D; format: biochemical; conditions: class symbols; for IC50: HTRF nucleotide exchange assay (NEA)
# T1 construct: aa1-188 KRAS WT, HRAS WT, NRAS WT, or KRAS containing the G12D
# Protocol: (§1) HTRF Nucleotide Exchange Assay Method
# (§2) The capacity of compounds to bind KRAS G12D, other KRAS mutants and wildtype RAS isoforms was quantified using a HTRF nucleotide exchange assay. Recombinant human RAS protein (2 nM; aa1-188 KRAS WT, HRAS WT, NRAS WT, or KRAS containing the G12D, G13D or Q61H amino acid substitutions, or 4 nM KRAS; aa1-188 containing the G12V, G12C, G12A or G12S amino acid substitution, an N-terminal 6× His-tag and leader sequence), and 2 nM Europium-labeled anti-6× His antibody were mixed in assay buffer (10 mM HEPES pH 7.3, 150 mM NaCl, 5 mM MgCl2, 0.05% BSA, 0.0025% NP-40 and 100 mM KF) with various concentrations of compound in a 384-well plate and a volume of 5 μL. After a 60-minute incubation at room temperature, 5 μl of 200 nM EDA-GTP-DY647P1 (diluted in assay buffer) was added to the plate. Following 30-minute incubation at room temperature, time-resolved fluorescence was measured on a PerkinElmer Envision plate reader. DMSO (0.3%) and unlabeled GDP (1 μM) or equivalent tool compound were used to generate the Max and Min assay signals, respectively. Data was analysed using a four-parameter logistic model to calculate IC50 values, with at least two independent replicates were performed for each compound. The results are presented as IC50s in Table 29 where “A” corresponds to an IC50 ≤10 nM, “B” to an IC50 >10 nM up to 100 nM, “C” is >100 nM up to 10 μM, “D” represents <49% inhibition at 10 μM and ND=not determined: […]
# KRAS WT = biological target: T2, KRAS WT (Homo sapiens, UniProt P01116); experiment: HTRF nucleotide exchange assay, KRAS WT; format: biochemical; conditions: HTRF nucleotide exchange assay (NEA), class symbols
# T2 construct: aa1-188 KRAS WT
# Protocol: as §1, §2
SMILES,IC50 (KRAS G12D) [nM],IC50 (KRAS WT) [nM],KRAS^G12D NEA (KRAS G12D)
"CCc1c(F)ccc2cc(O)cc(-c3cc4nc(OC[C@@H]5CCN5)nc(N5CCCn6nc(C(=O)N(C)C)cc6C5)c4c4cn(C)nc34)c12 [Example 50, 5-[4-(8-ethyl-7-fluoro-3-hydroxy-1-naphthyl)-2-methyl-7-[[(2S)-azetidin-2-yl]methoxy]pyrazolo[4,3-f]quinazolin-9-yl]-N,N-dimethyl-4,6,7,8-tetrahydropyrazolo[1,5-a][1,4]diazepine-2-carboxamide]",≤ 10,10 to 100,
"CCc1c(F)ccc2cc(O)cc(-c3cc4nc(OC[C@@]56CCCN5C[C@H](F)C6)nc(N5CCCC6(CCC(O)C6)C5)c4c4cn(C)nc34)c12 (stereo partly drawn) [Example 200, 7-[4-(8-ethyl-7-fluoro-3-hydroxy-1-naphthyl)-2-methyl-7-[[(2R,8S)-2-fluoro-1,2,3,5,6,7-hexahydropyrrolizin-8-yl]methoxy]pyrazolo[4,3-f]quinazolin-9-yl]-7-azaspiro[4.5]decan-3-ol]",100 to 10000,100 to 10000,
"CCc1c(F)ccc2cc(O)cc(-c3c(C)c4nc(OC[C@@]56CCCN5C[C@H](F)C6)nc(N5CCCn6nc(C(=O)N7CCCC7)cc6C5)c4c4cn(C)nc34)c12 [Example 182, [5-[4-(8-ethyl-7-fluoro-3-hydroxy-1-naphthyl)-7-[[(2R,8S)-2-fluoro-1,2,3,5,6,7-hexahydropyrrolizin-8-yl]methoxy]-2,5-dimethyl-pyrazolo[4,3-f]quinazolin-9-yl]-4,6,7,8-tetrahydropyrazolo[1,5-a][1,4]diazepin-2-yl]-pyrrolidin-1-yl-methanone]",≤ 10,≤ 10,
"CCc1c(F)ccc2cc(O)cc(-c3c(F)c4nc(OCC5(CN6CCC6)CC5)nc(N5CCOCC(C)(O)C5)c4c4cn(C)nc34)c12 (centres unmarked) [Example 214, 4-[7-[[1-(azetidin-1-ylmethyl)cyclopropyl]methoxy]-4-(8-ethyl-7-fluoro-3-hydroxy-1-naphthyl)-5-fluoro-2-methyl-pyrazolo[4,3-f]quinazolin-9-yl]-6-methyl-1,4-oxazepan-6-ol]",≤ 10,≤ 10,
CCc1c(F)ccc2cc(O)cc(-c3c(C)c4nc(OCC5(CF)COC5)nc(N5CCCn6nc(C(=O)N(C)C)cc6C5)c4c4cn(C)nc34)c12 [Example 215],10 to 100,100 to 10000,
"CCc1c(F)ccc2cc(O)cc(-c3c(F)c4nc(OC[C@@]56CCCN5C[C@H](F)C6)nc(N5C[C@H]6COC[C@@H]6C5)c4c4cn(C)nc34)c12 [Example 175, 5-ethyl-6-fluoro-4-[5-fluoro-2-methyl-9-[(3aS,6aS)-1,3,3a,4,6,6a-hexahydrofuro[3,4-c]pyrrol-5-yl]-7-[[(2R,8S)-2-fluoro-1,2,3,5,6,7-hexahydropyrrolizin-8-yl]methoxy]pyrazolo[4,3-f]quinazolin-4-yl]naphthalen-2-ol]",100 to 10000,10 to 100,
"CCc1c(F)ccc2cc(O)cc(-c3cc4nc(OC[C@@]56CCCN5C[C@H](F)C6)nc(N5CCOC[C@](C)(O)C5)c4c4cn(C)nc34)c12 [Example 41, (6R)-4-[4-(8-ethyl-7-fluoro-3-hydroxy-1-naphthyl)-2-methyl-7-[[(2R,8S)-2-fluoro-1,2,3,5,6,7-hexahydropyrrolizin-8-yl]methoxy]pyrazolo[4,3-f]quinazolin-9-yl]-6-methyl-1,4-oxazepan-6-ol]",10 to 100,10 to 100,
"CCc1c(F)ccc2cc(O)cc(-c3cc4nc(OC[C@@]56CCCN5C[C@H](F)C6)nc(N5CC6CCC(C5)C6C#N)c4c4cn(C)nc34)c12 (stereo partly drawn) [Example 210, 3-[4-(8-ethyl-7-fluoro-3-hydroxy-1-naphthyl)-7-[[(2R,8S)-2-fluoro-1,2,3,5,6,7-hexahydropyrrolizin-8-yl]methoxy]-2-methyl-pyrazolo[4,3-f]quinazolin-9-yl]-3-azabicyclo[3.2.1]octane-8-carbonitrile]",10 to 100,10 to 100,
"CCc1c(F)ccc2cc(O)cc(-c3c(F)c4nc(OCC5(CN6CC(C)OC(C)C6)CC5)nc(N5CCOCC(C)(O)C5)c4c4cn(C)nc34)c12 (centres unmarked) [Example 246, 4-[7-[[1-[(2,6-dimethylmorpholin-4-yl)methyl]cyclopropyl]methoxy]-4-(8-ethyl-7-fluoro-3-hydroxy-1-naphthyl)-5-fluoro-2-methyl-pyrazolo[4,3-f]quinazolin-9-yl]-6-methyl-1,4-oxazepan-6-ol]",≤ 10,≤ 10,
"CCc1c(F)ccc2cc(O)cc(-c3c(F)c4nc(OCC5(CN6CCC7(CCOCC7)C6)CC5)nc(N5CCOCC(C)(O)C5)c4c4cn(C)nc34)c12 (centres unmarked) [Example 228, 4-[4-(8-ethyl-7-fluoro-3-hydroxy-1-naphthyl)-5-fluoro-2-methyl-7-[[1-(8-oxa-2-azaspiro[4.5]decan-2-ylmethyl)cyclopropyl]methoxy]pyrazolo[4,3-f]quinazolin-9-yl]-6-methyl-1,4-oxazepan-6-ol]",≤ 10,≤ 10,
"CCc1c(F)ccc2cc(O)cc(-c3cc4nc(OC[C@@]56CCCN5C[C@H](F)C6)nc(N5CCCC(C)(O)CC5)c4c4cn(C)nc34)c12 (stereo partly drawn) [Example 29, 1-[4-(8-ethyl-7-fluoro-3-hydroxy-1-naphthyl)-7-[[(2R,8S)-2-fluoro-1,2,3,5,6,7-hexahydropyrrolizin-8-yl]methoxy]-2-methyl-pyrazolo[4,3-f]quinazolin-9-yl]-4-methyl-azepan-4-ol]",,100 to 10000,D (<49% inhibition at 10 μM)
"CCc1c(F)ccc2cc(O)cc(-c3cc4nc(OC[C@@]56CCCN5C[C@H](F)C6)nc(N5CC6CCC(C5)N6CC(C)O)c4c4cn(C)nc34)c12 (stereo partly drawn) [Example 91, 5-ethyl-6-fluoro-4-[7-[[(2R,8S)-2-fluoro-1,2,3,5,6,7-hexahydropyrrolizin-8-yl]methoxy]-9-[3-(2-hydroxypropyl)-3,8-diazabicyclo[3.2.1]octan-8-yl]-2-methyl-pyrazolo[4,3-f]quinazolin-4-yl]naphthalen-2-ol]",≤ 10,100 to 10000,
CCc1c(F)ccc2cc(O)cc(-c3cc4nc(OC[C@@H]5C[C@@H](OC)CN5)nc(N5CCCn6nc(C(=O)N(C)C)cc6C5)c4c4cn(C)nc34)c12 [Example 51],≤ 10,10 to 100,
"CCc1c(F)ccc2cc(O)cc(-c3c(F)c4nc(OCC56CCCN5CCC6)nc(N5CCOCC(C)(O)C5)c4c4cn(C)nc34)c12 (centres unmarked) [Example 160, 4-[4-(8-ethyl-7-fluoro-3-hydroxy-1-naphthyl)-5-fluoro-7-(1,2,3,5,6,7-hexahydropyrrolizin-8-ylmethoxy)-2-methyl-pyrazolo[4,3-f]quinazolin-9-yl]-6-methyl-1,4-oxazepan-6-ol]",≤ 10,≤ 10,
"C#Cc1c(F)ccc2cc(O)cc(-c3c(C)c4nc(OC[C@@]56CCCN5C[C@H](F)C6)nc(N5CCC[C@@](C)(O)C5)c4c4cn(C)nc34)c12 [Example 184, (3R)-1-[4-(8-ethynyl-7-fluoro-3-hydroxy-1-naphthyl)-2,5-dimethyl-7-[[(2R,8S)-2-fluoro-1,2,3,5,6,7-hexahydropyrrolizin-8-yl]methoxy]pyrazolo[4,3-f]quinazolin-9-yl]-3-methyl-piperidin-3-ol]",≤ 10,≤ 10,
"CCc1c(F)ccc2cc(O)cc(-c3c(F)c4nc(OC[C@@]56CCCN5C[C@H](F)C6)nc(N5C[C@H]6COC[C@H]6C5)c4c4cn(C)nc34)c12 [Example 174, 5-ethyl-6-fluoro-4-[5-fluoro-2-methyl-9-[(3aR,6aS)-1,3,3a,4,6,6a-hexahydrofuro[3,4-c]pyrrol-5-yl]-7-[[(2R,8S)-2-fluoro-1,2,3,5,6,7-hexahydropyrrolizin-8-yl]methoxy]pyrazolo[4,3-f]quinazolin-4-yl]naphthalen-2-ol]",≤ 10,≤ 10,
"CCc1c(F)ccc2cc(O)cc(-c3c(F)c4nc(OCC5(CN6CC(O)C(F)(F)C6)CC5)nc(N5CCOCC(C)(O)C5)c4c4cn(C)nc34)c12 (centres unmarked) [Example 237, 4-[7-[[1-[(3,3-difluoro-4-hydroxy-pyrrolidin-1-yl)methyl]cyclopropyl]methoxy]-4-(8-ethyl-7-fluoro-3-hydroxy-1-naphthyl)-5-fluoro-2-methyl-pyrazolo[4,3-f]quinazolin-9-yl]-6-methyl-1,4-oxazepan-6-ol]",≤ 10,,
"CCc1c(F)ccc2cc(O)cc(-c3c(F)c4nc(OC[C@@H]5CCN5C)nc(N5CCC[C@@](C)(O)C5)c4c4cn(C)nc34)c12 [Example 239, (3R)-1-[4-(8-ethyl-7-fluoro-3-hydroxy-1-naphthyl)-5-fluoro-2-methyl-7-[[(2S)-1-methylazetidin-2-yl]methoxy]pyrazolo[4,3-f]quinazolin-9-yl]-3-methyl-piperidin-3-ol]",≤ 10,,
"CCc1c(F)ccc2cc(O)cc(-c3c(C)c4nc(OCC5(CF)COC5)nc(N5CC6CCC(C5)N6)c4c4cn(C)nc34)c12 [Example 247, 4-[9-(3,8-diazabicyclo[3.2.1]octan-3-yl)-7-[[3-(fluoromethyl)oxetan-3-yl]methoxy]-2,5-dimethyl-pyrazolo[4,3-f]quinazolin-4-yl]-5-ethyl-6-fluoro-naphthalen-2-ol]",≤ 10,,
